Laboratory results published in patent US12098362B2, “Uses of Daldinia sp. or volatile organic compounds derived therefrom” (THE STATE OF ISRAEL, MINISTRY OF AGRICULTURE & RURAL …, priority 2015, dated 2024).

Assays:
[1] = tested on: A. niger, B. cinerea, A. alternata, and P. digitatum; assay: Ability of commercially available VOC compounds to control growth of four test fungi; format: cell-based; settings: single commercially available compound
Experimental: (§1) All chemical compounds were purchased from Sigma (Rehovot, Israel) and were of the highest purity available. The bioactivity of the mixtures combined on the VOCs identified, was determined as follows: Petri dishes (90 mm, 80 mL air volume) containing 15 mL of media (PDA amended with 12 μg/mL tetracycline) were inoculated (triplicates, 2 plugs each) with the test fungi A. alternata and B. cinerea (in the same plate), P. digitatum and A. niger (in separate plates). A cup of an Eppendorf tube was placed in the middle of the plate to which increasing volumes (0-200 μL) of the mixture was added. Then, the plates were sealed with parafilm and incubated at room temperature for two days before comparing the growth of the test fungi in those plates to control plates in the absence of the mixture. The ability of two mixtures: Mixture A and Mixture B to control other plant pathogenic fungi was determined as described above except that the concentration of the mixture was constant (1 mL/L) and the growth inhibition was estimated after 6 days. The viability of the test fungi after exposure to the mixtures was examined as described for D. concentrica.
(§2) The activity of each chemical component of the mixture was examined separately as described for the mixtures. […]

[2] = tested on: M. javanica J2 larvae; assay: Phenotype of second stage juveniles under a stereomicroscope after exposure; format: in vivo, Meloidogyne javanica; settings: 0.05 mL/L preloaded to 25 mg of perlite particles; 48 hours at 25° C.
Experimental: FIGS. 20A-D show second stage juveniles' phenotype following exposure to D. concentrica culture, synthetic mixture, and the compound 4-heptanone. The nematodes were exposed to each condition for 48 hours at 25° C. in the dark before visualization. FIG. 20A. Control—non treated nematodes. FIG. 20B. Nematodes exposed to three D. concentrica culture plates (50 mm in diameter with 5 mL growth medium) pre-grown for 4 days. FIG. 20C. Nematodes exposed to 0.25 mL/L of synthetic mixture preloaded to 125 mg of perlite particles. FIG. 20D. Nematodes exposed to 0.05 mL/L of the compound 4-heptanone preloaded to 25 mg of perlite particles. The bar indicates […].
The effects of D. concentrica, synthetic mixture and the pure compound 4-heptanone were also examined visually under a stereomicroscope. The results are presented in FIGS. 20A-D wherein FIG. 20A represents non-treated nematodes; FIG. 20B represents nematodes exposed to three D. concentrica culture plates (50 mm in diameter with 5 mL growth medium) pre-grown for 4 days; FIG. 20C represents nematodes exposed to 0.25 mL/L of synthetic mixture preloaded to 125 mg of perlite particles; FIG. 20D represents nematodes exposed to 0.05 mL/L of the compound 4-heptanone preloaded to 25 mg of perlite particles.

[3] = tested on: Aspergillus niger; assay: Chemical mixtures bioactivity test in sealed Petri dish; format: cell-based; settings: single compound
Experimental: as §1, §2

[4] = tested on: Penicillium digitatum; assay: as above; format: cell-based; settings: single compound
Experimental: as §1, §2

COc1cc2ccccc2cc1O [3-methoxy-2-naphthol]
ability to control the growth of A. niger, B. cinerea, A. alternata, and P. digitatum [1]: failed to inhibit fungal growth

CCCC(=O)CCC [Mixture 4-heptanone, 4-heptanone]
nematode phenotype (body shape, viability) [2]: most of the nematodes demonstrated the typical straight body shape with nearly no curved appearance

OCCc1ccccc1 [phenyl ethyl alcohol]
ability to control the growth of A. niger, B. cinerea, A. alternata, and P. digitatum [1]: failed to inhibit fungal growth

methyl-1,4-cyclohexadiene
growth inhibition of A. niger [3]: 10.8%
growth inhibition of P. digitatum [4]: 3.1%
